Data taken from publication PMC4669708 (Cell Death & Disease, 2015).

Experiments:
TAB1 = biological target: T1, TAB1 (Homo sapiens, UniProt Q15750); test: c-ponatinib pulldown LC-MS/MS; format: binding
T1 sequence (Q15750 1-504): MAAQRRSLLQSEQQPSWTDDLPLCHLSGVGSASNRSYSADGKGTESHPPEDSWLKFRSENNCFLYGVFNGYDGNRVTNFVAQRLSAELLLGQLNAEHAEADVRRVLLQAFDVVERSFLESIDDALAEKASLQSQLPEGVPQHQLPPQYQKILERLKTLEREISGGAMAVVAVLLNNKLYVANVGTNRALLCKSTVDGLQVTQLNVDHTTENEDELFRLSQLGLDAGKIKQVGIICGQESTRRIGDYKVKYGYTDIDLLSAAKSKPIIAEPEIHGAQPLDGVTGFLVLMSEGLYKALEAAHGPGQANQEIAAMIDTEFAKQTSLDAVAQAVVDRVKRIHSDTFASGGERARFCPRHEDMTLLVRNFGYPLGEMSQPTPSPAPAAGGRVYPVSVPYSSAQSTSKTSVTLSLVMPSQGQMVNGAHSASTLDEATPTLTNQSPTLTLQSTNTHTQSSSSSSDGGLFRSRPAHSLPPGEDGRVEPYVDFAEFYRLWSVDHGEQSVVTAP
T1 sequence (O43318 1-606 partner): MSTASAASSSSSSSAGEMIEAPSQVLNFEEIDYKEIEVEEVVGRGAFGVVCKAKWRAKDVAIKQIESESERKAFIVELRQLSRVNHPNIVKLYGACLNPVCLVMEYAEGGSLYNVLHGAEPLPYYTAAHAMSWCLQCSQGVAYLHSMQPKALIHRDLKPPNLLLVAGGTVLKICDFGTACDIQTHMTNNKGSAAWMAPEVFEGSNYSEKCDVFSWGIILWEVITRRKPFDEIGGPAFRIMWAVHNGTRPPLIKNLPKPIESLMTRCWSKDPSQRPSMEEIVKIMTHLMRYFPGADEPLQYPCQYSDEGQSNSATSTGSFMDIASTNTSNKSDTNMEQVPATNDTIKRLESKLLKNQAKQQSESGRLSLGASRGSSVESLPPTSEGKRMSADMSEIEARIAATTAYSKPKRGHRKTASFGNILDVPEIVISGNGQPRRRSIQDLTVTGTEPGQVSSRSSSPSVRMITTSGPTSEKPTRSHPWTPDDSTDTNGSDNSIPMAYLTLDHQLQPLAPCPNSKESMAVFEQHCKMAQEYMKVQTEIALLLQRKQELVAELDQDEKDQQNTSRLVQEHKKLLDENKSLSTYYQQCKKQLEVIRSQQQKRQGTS
Summary of the method: (§1)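 Spectral counts and search-engine scores from LC-MS/MS of tryptic eluates gave drug-protein specificity P-values. Eluates came from duplicate pulldowns of 10 mg lysate on 25 nmol immobilized c-ponatinib. Competition was the ratio of median counts with versus without free compound.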

YWHAQ = biological target: T2, YWHAQ (Homo sapiens, UniProt P27348); test: c-ponatinib pulldown LC-MS/MS; format: binding
T2 sequence (P27348 1-245): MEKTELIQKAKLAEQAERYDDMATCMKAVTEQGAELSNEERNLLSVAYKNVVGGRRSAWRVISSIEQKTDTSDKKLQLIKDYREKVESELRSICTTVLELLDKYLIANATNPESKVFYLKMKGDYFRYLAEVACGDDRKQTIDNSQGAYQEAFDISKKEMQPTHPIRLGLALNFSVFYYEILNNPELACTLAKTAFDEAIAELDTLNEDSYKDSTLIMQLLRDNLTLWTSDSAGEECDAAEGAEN
Summary of the method: as §1

`Cc1ccc(C(=O)Nc2ccc(CN3CCN(CCCN)CC3)c(C(F)(F)F)c2)cc1C#Cc1cnc2cccnn12` [c-ponatinib] was tested, and the “Av. SC comp.” value (TAB1; + free ponatinib) was 6.75, the “Total SC comp.” value (TAB1; + free ponatinib) was 27 and the “Av. SC” value (TAB1; no competitor) was 38.25. For the same compound, the “Total SC” value (TAB1; no competitor) was 153, the “Av. SC comp.” value (YWHAQ; + free ponatinib) was 1.25 and the “Total SC comp.” value (YWHAQ; + free ponatinib) was 5. The “Av. SC” value (YWHAQ; no competitor) was 9 and the “Total SC” value (YWHAQ; no competitor) was 36.
